# Results reported in US20240115586A1, “THERAPEUTIC AGENT FOR PULMONARY FIBROSIS” (SANSHO CO. LTD., priority 2020, published 2024).
# Tested on: bleomycin-induced pulmonary fibrosis model mice
# Test: Effect on right lung wet weight, dry weight and hydroxyproline in bleomycin-induced pulmonary fibrosis model mice
# Format: in vivo, Mouse Crl:CD1(ICR)
# Details: Day 28, mean ± S.E.M., N=9; for Dry weight of right lung: Control 0.0348 ± 0.0017, Normal 0.0236 ± 0.0007; for Wet weight of right lung: Control 0.1735 ± 0.0087, Normal 0.1224 ± 0.0029; for Hydroxyproline (right lung): Control 354.9 ± 15.1, Normal 266.9 ± 6.4
# Procedure: • Japanese Pharmacopoeia: Physiological saline solution (saline solution) • (2) Test system • Mouse Crl:CD1(ICR), 45 mice, male, purchased from Charles River Japan K.K. (11 weeks old at time of purchase)
# The test substance was divided into 6 mg×28 doses prior to the day of administration. Dose solution was prepared on the day of administration. To one bottle of the previously aliquoted test substance (6 mg), 6 mL of saline solution was added and mixed by inverting. The samples were heated (approximately 40° C.) and sonicated until dissolution was visually confirmed (1 mg/mL solution). The 1 mg/mL solution was divided into 0.5 mL portions, and 4.5 mL of saline solution was added. Dissolution was confirmed by inverting and mixing (0.1 mg/mL solution).
# The route of administration was intraperitoneal administration.
# It was administered once per day for 28 days. Administration at the time of preparation of the pulmonary fibrosis model (Day 0 to Day 4) was before administration of bleomycin.
# 10 mL/kg was administered intraperitoneally using a 1 mL syringe and needle (Terumo Corporation).
# The bleomycin solution was administered into the tail vein of mice at a dose volume of 5 mL/kg (bleomycin dose: 15 mg/kg) once a day for 5 days. The volume of administered liquid was calculated based on the latest body weight and calculated to the nearest 0.01 mL (rounded to the third decimal place). The normal group was administered physiological saline at a volume of 5 mL/kg.
# After lethal exsanguination, the right bronchial bifurcation was ligated, and only the right lung was removed. The wet weight of the excised right lung was measured. After weighing, the right lung was minced. After that, the right lung was dried in a dry heat sterilizer set at 72° C. for about 72 hours, and the dry weight of the right lung was measured. After measuring the dry weight, it was stored in an ultra-low temperature freezer (permissible range: −90 to −65° C.) until the amount of hydroxyproline was measured. The left lung was ligated and fixed after a cannula was inserted into the trachea, and a 10% phosphate-buffered formalin solution was injected through the cannula at a pressure of 15 cm H2O to expand and fix the lung tissue. Lung sampling was performed on animals from which blood collection was performed. A fixed left lung is undergoing histopathological examination.
# The hydroxyproline content of the right lung cryopreserved in section (6-5) was measured. 2 mL of HCl for hydrolysis was added to the dried right lung and the sample was hydrolyzed in an autoclave at about 121° C. for 30 minutes. After that, it was neutralized with 2.5 N NaOH (pH about 6 to 7: pH test paper was used for confirmation). By measuring the tare weight in advance and measuring the weight after neutralization, the amount (g) of the sample after neutralization was calculated. The sample after neutralization was appropriately diluted with water for injection, and 2 mL of the solution was used as a sample for measurement of HYP content.
# 1 mL of chloramine T reagent was added to 2 mL of the HYP standard solution and the mixture was left stand at room temperature for 20 minutes. Then, 1 mL of perchloric acid reagent was added and the mixture was left stand at room temperature for 5 minutes. After adding 1 mL of p-dimethylaminobenzaldehyde reagent and heating at 60° C. for 20 minutes, the absorbance at 557 nm of the supernatant which was obtained by filtration using a filter was measured with a spectrophotometer to create a calibration curve.
# For 2 mL of each sample for measurement of HYP content, the absorbance was measured in the same manner as described in Section 3.6.6.2, and the HYP content (μg/mL) was calculated from the measured values based on the calibration curve obtained in Section 3.6.6.2. Each sample for measurement of HYP content was diluted 20-fold and was measured. Single measurement was used. […]
# [1] = 2ccPA 1 mg/kg intraperitoneal once per day for 28 days
# [2] = 2ccPA 10 mg/kg intraperitoneal once per day for 28 days
substance,measurement,setting,value
2-Carbacyclic phosphatidic acid [2ccPA],Dry weight of right lung,[1],0.0327 ± 0.0021 g
same,Wet weight of right lung,[1],0.1599 ± 0.0113 g
same,Hydroxyproline (right lung),[1],331.2 ± 20.0 μg/lung
same,Dry weight of right lung,[2],0.0303 ± 0.0011 g
same,Wet weight of right lung,[2],0.1458 ± 0.0044 g
same,Hydroxyproline (right lung),[2],288.8 ± 11.1 μg/lung
